According to patent publication US20100035793A1, “Modulators” (priority 2005, published 2010):
Non-standard residues stand in square brackets, D forms with d. No end group written: not given here. pY = N[C@@H](Cc1ccc(OP(=O)(O)O)cc1)C(=O)O

Key:
JAK2 = JAK2 (Homo sapiens, UniProt O60674); settings: cited from earlier work
Stat3 [1] = target: T1, Stat3 (Homo sapiens, UniProt P40763); settings: cited from earlier work
breast carcinoma cells = settings: cited from earlier work
Stat3 [2] = target: T1, Stat3; settings: cited from earlier work; remark: listed apart in the source
Stat3 [3] = target: T1, Stat3; settings: cited from earlier work; remark: listed apart in the source
Stat3 [4] = test: Western blot of Stat3 expression in packaging cells transfected with Stat3 siRNA vectors; set-up: species or system human; settings: 293T-based amphotropic packaging cell line, FIG. 5A left panel
From the text: Retroviral Stat3 siRNA. Four different targets designed against STAT 3 were selected and cloned into BglII and XhoI into pSUPER.retro.puro from OligoEngine, and sequenced (STAT 3 Genbank Accession number NM_139276). The four targets are named STAT 3 siRNA 1 (nt. 461-480) SEQ ID 1, STAT 3 siRNA 2 (nt. 1264-1283) SEQ ID 2, STAT 3 siRNA 3 (nt. 364-383) GATTGGGCATATGCGGCCA, and STAT 3 siRNA 4 (nt. 1662-1681) SEQ ID 3. The corresponding primers with a 9-nt short hairpin in the middle (bold) are
(§1) These vectors containing Stat3 siRNA targets and empty vector were transfected into 293T-based Phoenix-Ampho packaging cell line for 7-9 h, and the amphotropic retroviruses were harvested 48 h later, pelleted to remove nonadherent cells and cellular debris, and filtered through a […] cellulose acetate membrane. The keloid fibroblasts were infected overnight in the presence of 4 μg/ml polybrene, and replaced with fresh 10% FBS/DMEM the following day. Cells were assayed for Western blot 48 h after infection, or for XTT cell proliferation, or for migration assay which was performed by replating the cells into 8 μM Transwell membrane and fixed 24 h later as described above.
(§2) Western blot. Cells were either harvested in radioimmune precipitation assay (RIPA) buffer (150 mM NaCl, 50 mM Tris-HCl, pH 7.2, 1% deoxycholic acid, 1% Triton X-100, 0.25 mM EDTA, pH 8.0) containing protease inhibitor cocktail (Roche Diagnostics Corporation, Indianapolis, Ind., USA), or lysis buffer containing 150 mM NaCl, 10 mM Tris-HCl, pH 7.4, 0.5% Triton-X-100, 0.5% NP-40, 1 mM EDTA, 0.2 mM sodium vanadate, supplemented with protease inhibitor tablet. Total cell lysates were collected after centrifugation for 10 min at 4° C., and resolved in 7.5% or 10% polyacrylamide gel electrophoresis, and transferred to PVDF membranes (Bio-Rad Laboratories, Hercules, Calif., USA). The membranes were blotted with anti-phosphoTyr705 Stat3 antibody (1:1000 dilution; Cell Signaling, Beverly, Mass., USA) overnight at 4° C. overnight in PBS containing 1% BSA and 0.1% Tween 20, washed with PBS containing 0.2% Tween 20, and incubated with secondary anti-rabbit IgG antibody (1:2000 dilution; Sigma, Saint Louis, Mo., USA) for 1 h at room temperature, washed with PBS containing 0.2% Tween 20, followed by enhanced chemiluminescence (Amersham Biosciences, Buckinghamshire, UK) or Lumi-Light (Roche Diagnostics Corporation, Indianapolis, USA), and autoradiography. The membranes were stripped with Restore Western Blotting Stripping Buffer (Pierce, Rockford, Ill., USA) according to manufacturer's instructions and reblotted with anti-phosphoSer727 Stat3 (1:1000 dilution; Cell Signaling, Beverly, Mass., USA) and secondary anti-mouse IgG antibody (1:2000 dilution; Sigma, Saint Louis, Mo., USA). […]

Stat3 [5] = test: Western blot of Stat3 expression in KF48 infected with retroviral Stat3 siRNAs; type: cell-based, human; settings: KF48 infected with retrovirus expressing Stat3 siRNAs
Protocol: as §1
Western blot. Cells were either harvested in radioimmune precipitation assay (RIPA) buffer (150 mM NaCl, 50 mM Tris-HCl, pH 7.2, 1% deoxycholic acid, 1% Triton X-100, 0.25 mM EDTA, pH 8.0) containing protease inhibitor cocktail (Roche Diagnostics Corporation, Indianapolis, Ind., USA), or lysis buffer containing 150 mM NaCl, 10 mM Tris-HCl, pH 7.4, 0.5% Triton-X-100, 0.5% NP-40, 1 mM EDTA, 0.2 mM sodium vanadate, supplemented with protease inhibitor tablet. Total cell lysates were collected after centrifugation for 10 min at 4° C., and resolved in 7.5% or 10% polyacrylamide gel electrophoresis, and transferred to PVDF membranes (Bio-Rad Laboratories, Hercules, Calif., USA). The membranes were blotted with anti-phosphoTyr705 Stat3 antibody (1:1000 dilution; Cell Signaling, Beverly, Mass., USA) overnight at 4° C. overnight in PBS containing 1% BSA and 0.1% Tween 20, washed with PBS containing 0.2% Tween 20, and incubated with secondary anti-rabbit IgG antibody (1:2000 dilution; Sigma, Saint Louis, Mo., USA) for 1 h at room temperature, washed with PBS containing 0.2% Tween 20, followed by enhanced chemiluminescence (Amersham Biosciences, Buckinghamshire, UK) or Lumi-Light (Roche Diagnostics Corporation, Indianapolis, USA), and autoradiography. The membranes were stripped with Restore Western Blotting Stripping Buffer (Pierce, Rockford, Ill., USA) according to manufacturer's instructions and reblotted with anti-phosphoSer727 Stat3 (1:1000 dilution; Cell Signaling, Beverly, Mass., USA) and secondary anti-mouse IgG antibody (1:2000 dilution; Sigma, Saint Louis, Mo., USA). The stripping and reblotting procedure was repeated with monoclonal anti-Stat3 (1:1000 dilution; BD Transduction Laboratories), polyclonal anti-actin (1:1000 dilution; Sigma) and monoclonal anti-collagen antibody (1:1000 dilution; MONOSAN).

collagen = test: Western blot of collagen production in KF48 keloid fibroblasts; type: cell-based, human; settings: KF48 infected with retroviral Stat3 siRNAs, FIG. 5A right panel
Protocol: as §1
Inhibition of Stat3 was also evaluated by incubating KF48 for 30 min with various doses of Cucurbitacin I, an inhibitor of Jak2/Stat3 activation (32), or with DMSO alone as a control, followed by further incubation in normal growth media for 48 h. […] Cucurbitacin I was acquired from Galchimia (A Corufia, Spain).
as §2, with “autoradiography.” for “autoradiography. The membranes were stripped with Restore Western Blotting Stripping Buffer (Pierce, Rockford, Ill., USA) according to manufacturer's instructions and reblotted with anti-phosphoSer727 Stat3 (1:1000 dilution; Cell Signaling, Beverly, Mass., USA) and secondary anti-mouse IgG antibody (1:2000 dilution; Sigma, Saint Louis, Mo., USA).”
Methods of assessing polypeptides regulated by STAT Collagen may be regulated by STAT 3 activation. monoclonal anti-human collagen I, II, III Was purchased from MONOSAN (Uden, Netherlands). […] These were detected via western blot as described above.

KF48 keloid fibroblasts [6] = test: Scratch-wound migration assay; type: cell-based, human; settings: KF48 infected with Stat3 siRNA retrovirus, 15 h after wounding, vs vector
Protocol: Cell migration in keloidflbroblasts is inhibited by Stat3 siRNA and Cucurbitacin I. To examine the role of Stat3 in cell migration of skin fibroblasts, KF48 cells were infected with retrovirus expressing Stat3 siRNAs and scratch assays were performed as previously described. […] Three non-overlapping fields were acquired, and graphically illustrated as mean±SD in FIG. 8B. Transmembrane cell migration assays were also performed in triplicates as described earlier, and quantified as mean±SD (FIG. 8C). […] The right panels in FIG. 8B and 8C depict immunoblots of Stat3 and actin to show the efficiencies of inhibition by the Stat3 siRNAs.
The role of Stat3 in cell migration was also examined using Cucurbitacin I in the scratch assay. KF48 cells were first incubated with 10 μg/ml mitomycin C for 2 h, before treating for 30 min with DMSO or 1 μM Cucurbitacin I. The scratch-wound was performed, followed by further incubation in normal growth media. Pictures were taken at 0 h, 22 h and 48 h after wounding.
Migration assay. For migration assay using the scratch method, cells were grown to confluence and incubated with 10 μg/ml mitomycin C for 2 h, before a scratch wound was introduced using a yellow pipette tip. Cells were further incubated in normal growth media and pictures were taken at 0 h, 14 h, 15 h, 22 h, or 48 h after wounding. Three non-overlapping fields were captured by Axiovert 135 microscope from Zeiss and cells migrated into the wound site were counted and presented as mean±SD.

KF48 keloid fibroblasts [7] = test: Transwell migration assay; type: cell-based, human; settings: KF48 infected with Stat3 siRNA retrovirus, vs vector
Protocol: as §1
Migration assay was also performed using the Transwell 8.0 μM pore size polycarbonate membrane (Corning Inc.). 1×10^4 cells/well were seeded at the top of the insert in 0.2 ml serum-free DMEM, with 0.5 ml 10% FBS/DMEM in the bottom chamber as chemoattractant. 24 h later, cells were washed once in cold PBS, before fixing with 4% paraformaldehyde in PBS for 15 min at room temperature. Cells were permeabilized with 0.1% Triton X-100 in PBS for 3 min at room temperature, and stained with haematoxylin for 10 min at room temperature, followed by destain with water thrice. Cells from the top of the inserts were removed by cotton swabs, and inserts were left to dry. The inserts were mounted onto slides and three non-overlapping fields of cells migrated to the bottom of the inserts were captured using Leica DM4000 B microscope.

KF48 keloid fibroblasts [8] = test: XTT proliferation assay; type: cell-based, human
From the text: Inhibition of Stat3 decreases cell proliferation. Enhanced fibroblast proliferation is a characteristic of keloid tissue. In agreement with this, keloid fibroblasts grown in normal culture conditions proliferated faster than normal fibroblasts, as observed in KF48 and KF107 compared to NF2 and NF4 (FIG. 6A). To investigate whether Stat3 is involved in the enhanced keloid fibroblast proliferation, KF48 was infected with retrovirus expressing Stat3 siRNAs, and cell proliferation was examined. […] XTT proliferation assay. Cells seeded at 3,000 cells/well in 96-well plates and grown in normal growth conditions, or infected with retroviral Stat3 siRNAs, were assayed for proliferation using the XrT proliferation kit (Roche) according to the manufacturer's instructions. The readings were taken at 450 nm and referenced against 690 nm, 2 h after the addition of the XrT reagent. Each sample was performed at quadruplicates in two to three independent experiments. Data are presented as mean±SD
Cell proliferation was also investigated by treating KF48 cells with various doses of Cucurbitacin I or with DMSO control, before incubating in normal growth media and examined daily over 4 days. Cucurbitacin I concentration as low as I μM was able to inhibit cell proliferation of KF48 compared to DMSO and untreated control (0 μM), whereas Cucurbitacin I exposure at 5 μM and above seemed to cause cell death (FIG. 6C).

T1 sequence (P40763 whole entry, species assumed): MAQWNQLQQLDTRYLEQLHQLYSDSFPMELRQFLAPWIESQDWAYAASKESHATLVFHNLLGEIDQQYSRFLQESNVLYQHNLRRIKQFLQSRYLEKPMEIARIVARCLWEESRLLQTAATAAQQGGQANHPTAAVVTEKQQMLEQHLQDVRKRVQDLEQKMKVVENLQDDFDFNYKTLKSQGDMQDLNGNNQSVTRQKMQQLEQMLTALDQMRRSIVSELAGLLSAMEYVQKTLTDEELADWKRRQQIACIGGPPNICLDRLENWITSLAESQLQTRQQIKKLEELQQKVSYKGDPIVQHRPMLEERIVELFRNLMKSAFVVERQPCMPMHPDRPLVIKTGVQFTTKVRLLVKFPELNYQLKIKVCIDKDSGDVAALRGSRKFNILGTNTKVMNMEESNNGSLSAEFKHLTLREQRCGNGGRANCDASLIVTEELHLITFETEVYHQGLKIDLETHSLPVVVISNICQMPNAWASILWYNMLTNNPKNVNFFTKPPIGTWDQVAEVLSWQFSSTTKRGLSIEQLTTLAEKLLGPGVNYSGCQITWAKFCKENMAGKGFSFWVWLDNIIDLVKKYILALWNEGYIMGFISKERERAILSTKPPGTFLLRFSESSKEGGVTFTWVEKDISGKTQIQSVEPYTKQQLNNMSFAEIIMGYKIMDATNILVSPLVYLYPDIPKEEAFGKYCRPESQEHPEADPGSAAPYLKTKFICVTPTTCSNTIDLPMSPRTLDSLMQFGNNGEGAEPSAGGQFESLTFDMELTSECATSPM
Sequence of JAK2 (O60674 whole entry, species assumed): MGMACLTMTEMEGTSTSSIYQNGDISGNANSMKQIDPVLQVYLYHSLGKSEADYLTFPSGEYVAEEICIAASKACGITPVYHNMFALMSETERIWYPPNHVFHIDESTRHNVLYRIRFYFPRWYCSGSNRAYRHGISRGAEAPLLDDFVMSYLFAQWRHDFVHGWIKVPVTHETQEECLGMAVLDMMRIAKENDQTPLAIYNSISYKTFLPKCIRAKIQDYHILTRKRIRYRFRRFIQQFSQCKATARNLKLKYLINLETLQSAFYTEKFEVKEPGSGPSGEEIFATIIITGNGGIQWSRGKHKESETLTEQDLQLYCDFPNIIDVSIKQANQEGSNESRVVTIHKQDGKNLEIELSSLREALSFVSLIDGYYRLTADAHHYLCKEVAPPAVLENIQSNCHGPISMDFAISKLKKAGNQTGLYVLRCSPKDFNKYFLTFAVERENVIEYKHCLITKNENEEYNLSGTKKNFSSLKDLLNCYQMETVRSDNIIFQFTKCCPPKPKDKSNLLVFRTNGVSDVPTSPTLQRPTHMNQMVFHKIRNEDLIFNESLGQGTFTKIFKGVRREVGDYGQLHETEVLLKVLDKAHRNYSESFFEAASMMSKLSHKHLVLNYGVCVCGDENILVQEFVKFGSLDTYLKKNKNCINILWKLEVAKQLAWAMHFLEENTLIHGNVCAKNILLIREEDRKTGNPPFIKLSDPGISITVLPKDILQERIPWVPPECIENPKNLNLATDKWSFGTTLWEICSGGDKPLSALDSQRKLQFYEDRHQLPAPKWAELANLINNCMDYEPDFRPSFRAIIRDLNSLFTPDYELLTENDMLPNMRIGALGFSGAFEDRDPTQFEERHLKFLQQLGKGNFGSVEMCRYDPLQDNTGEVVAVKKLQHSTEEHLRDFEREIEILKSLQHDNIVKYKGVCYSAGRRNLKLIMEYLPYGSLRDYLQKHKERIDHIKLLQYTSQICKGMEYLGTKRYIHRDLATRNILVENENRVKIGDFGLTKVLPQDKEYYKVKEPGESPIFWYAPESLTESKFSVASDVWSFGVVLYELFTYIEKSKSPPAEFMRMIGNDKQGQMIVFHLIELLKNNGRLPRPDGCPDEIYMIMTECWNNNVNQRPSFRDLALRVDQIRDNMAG

CC(=O)OC(C)(C)/C=C/C(=O)[C@](C)(O)[C@H]1[C@H](O)C[C@@]2(C)[C@@H]3CC=C4[C@@H](C[C@H](O)C(=O)C4(C)C)[C@]3(CO)C(=O)C[C@]12C [Cucurbitacin A]
inhibition of activation of JAK2 (JAK2): inhibits | inhibition of activation of STAT 3 (Stat3 [1]): not

CC(=O)OC(C)(C)/C=C/C(=O)[C@](C)(O)[C@H]1[C@H](O)C[C@@]2(C)[C@@H]3CC=C4[C@H](C[C@H](O)C(=O)C4(C)C)[C@]3(C)C(=O)C[C@]12C [Cucurbitacin B]
inhibition of activation of JAK2 (JAK2): inhibit | inhibition of activation of STAT 3 (Stat3 [1]): inhibit

CC(=O)OC(C)(C)/C=C/C(=O)[C@](C)(O)[C@H]1[C@H](O)C[C@@]2(C)[C@@H]3CC=C4[C@@H](C=C(O)C(=O)C4(C)C)[C@]3(C)C(=O)C[C@]12C [Cucurbitacin E]
inhibition of activation of JAK2 (JAK2): inhibit | inhibition of activation of STAT 3 (Stat3 [1]): inhibit

C[C@@H]1CC(=O)c2c(ccc3c2C(=O)c2cccc(O)c2C3=O)C1 [STA-21]
effect on cells in which constitutive Stat3 signaling is absent (breast carcinoma cells): minimal effect | survival of breast carcinoma cells with constitutive Stat3 signaling (breast carcinoma cells): reduces the survival | Stat3-dependent luciferase activity (Stat3 [2]): inhibits | Stat3 DNA binding activity (Stat3 [2]): inhibits | Stat3 dimerization (Stat3 [2]): inhibits

Cucurbitacin Q
inhibition of activation of JAK2 (JAK2): not | inhibition of activation of STAT 3 (Stat3 [1]): inhibits

PY*L: tripeptide derivative of PY*LKTK, Y* represents phosphotyrosine (Pro-[pY]-Leu; UniProt P40763 704-706, looked up, fragment)
STAT 3 biochemical activity and biological function (Stat3 [3]): inhibit

PYLKTK: non-phosphorylated control peptide of PY*LKTK (UniProt P40763 704-709, looked up, fragment)
levels of DNA binding activities of STAT 3 (Stat3 [3]; peptide present in nuclear extracts): not

Stat3 siRNA 1: siRNA target nt. 461-480 of STAT 3 (NM—139276), AGTCGAATGTTCTCTATCA, hairpin primers SEQ ID 4 and 5, retroviral vector
inhibitory effect on Stat3 expression (Stat3 [4]): inhibitory effect | inhibition of Stat3 expression (Stat3 [5]): inhibit Stat3 expression | inhibition of collagen production (collagen): inhibition of collagen production | rate of cell migration, scratch assay (KF48 keloid fibroblasts [6]): impede the rate of cell migration | cell migration, Transwell (KF48 keloid fibroblasts [7]): hinder the cell migration

Stat3 siRNA 2: siRNA target nt. 1264-1283 of STAT 3, GGCGTCCAGTTCACTACTA, hairpin primers SEQ ID 6 and 7, retroviral vector
inhibitory effect on Stat3 expression (Stat3 [4]): inhibitory effect | inhibition of Stat3 expression (Stat3 [5]): inhibit Stat3 expression | inhibition of collagen production (collagen): inhibition of collagen production | rate of cell migration, scratch assay (KF48 keloid fibroblasts [6]): impede the rate of cell migration | cell migration, Transwell (KF48 keloid fibroblasts [7]): hinder the cell migration

Stat3 siRNA 3: siRNA target nt. 364-383 of STAT 3, GATTGGGCATATGCGGCCA, retroviral vector; does not inhibit Stat3
inhibitory effect on Stat3 expression (Stat3 [4]): not | inhibition of Stat3 expression (Stat3 [5]): does not inhibit Stat3 | rate of cell migration, scratch assay (KF48 keloid fibroblasts [6]): did not | cell migration, Transwell (KF48 keloid fibroblasts [7]): did not

Stat3 siRNA 4: siRNA target nt. 1662-1681 of STAT 3, GCGTCCATCCTGTGGTACA, hairpin primers SEQ ID 8 and 9, retroviral vector
inhibitory effect on Stat3 expression (Stat3 [4]): inhibitory effect | inhibition of Stat3 expression (Stat3 [5]): inhibit Stat3 expression | relative effectiveness among the siRNAs tested (KF48 keloid fibroblasts [8]; keloid fibroblast collagen production, proliferation and migration): most effective | cell proliferation of KF48 (KF48 keloid fibroblasts [8]; retroviral Stat3 siRNA, vs noninfected, vector and Stat3 siRNA 3, FIG. 6B): decreased cell proliferation | inhibition of collagen production (collagen): inhibition of collagen production | rate of cell migration, scratch assay (KF48 keloid fibroblasts [6]): impede the rate of cell migration | cell migration, Transwell (KF48 keloid fibroblasts [7]): hinder the cell migration
